Data taken from patent US20240190821A1, “SULFONAMIDE SUBSTITUTED N-(1H-INDOL-7-YL)BENZENESULFONAMIDES AND USES THEREOF” (Triana Biomedicines, Inc., priority 2021, published 2024).

What follows are molecules tested against T1, DCAF15-RBM39 ternary complex (Homo sapiens, UniProt Q14498+Q66K64) (assay: Compound-induced DCAF15-RBM39 ternary complex formation, AlphaLISA). Conditions: not given.
T1 construct: (RRM2)
Format: biochemical
Method: Compound-induced DCAF15-RBM39 ternary complex formation was monitored using AlphaLISA® assays (Perkin Elmer, Waltham, MA). […] 9.8 ul of this protein mixture was then mixed with the compounds in the assay plate and incubated for one hour at room temperature. Reaction mixtures with no compounds added were included as negative controls, while a His-tagged and biotinylated GST protein was included to track general assay performance. […] The beads were then added to the assay plate sequentially with incubation at room temperature for 1-2 hours after each addition.

T1 sequence (Q66K64 whole entry): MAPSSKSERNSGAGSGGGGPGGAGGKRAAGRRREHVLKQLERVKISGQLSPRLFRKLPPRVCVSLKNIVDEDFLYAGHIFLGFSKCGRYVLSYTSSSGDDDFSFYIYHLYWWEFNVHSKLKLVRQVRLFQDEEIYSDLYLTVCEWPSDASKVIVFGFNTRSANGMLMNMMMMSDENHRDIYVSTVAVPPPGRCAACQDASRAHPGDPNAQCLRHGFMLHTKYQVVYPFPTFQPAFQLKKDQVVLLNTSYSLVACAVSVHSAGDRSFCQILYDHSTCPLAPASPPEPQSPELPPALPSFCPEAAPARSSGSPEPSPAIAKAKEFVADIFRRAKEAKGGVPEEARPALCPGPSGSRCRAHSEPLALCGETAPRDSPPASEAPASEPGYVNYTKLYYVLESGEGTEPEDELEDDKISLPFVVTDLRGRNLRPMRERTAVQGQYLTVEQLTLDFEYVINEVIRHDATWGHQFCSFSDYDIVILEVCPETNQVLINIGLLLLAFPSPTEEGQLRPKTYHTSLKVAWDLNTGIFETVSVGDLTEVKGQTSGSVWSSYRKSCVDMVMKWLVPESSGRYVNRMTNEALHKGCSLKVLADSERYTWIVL
T1 sequence (Q14498 250-328 limits assumed): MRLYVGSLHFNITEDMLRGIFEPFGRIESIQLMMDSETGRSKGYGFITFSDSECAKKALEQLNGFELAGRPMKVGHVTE
T1 sequence (Q16531 whole entry partner): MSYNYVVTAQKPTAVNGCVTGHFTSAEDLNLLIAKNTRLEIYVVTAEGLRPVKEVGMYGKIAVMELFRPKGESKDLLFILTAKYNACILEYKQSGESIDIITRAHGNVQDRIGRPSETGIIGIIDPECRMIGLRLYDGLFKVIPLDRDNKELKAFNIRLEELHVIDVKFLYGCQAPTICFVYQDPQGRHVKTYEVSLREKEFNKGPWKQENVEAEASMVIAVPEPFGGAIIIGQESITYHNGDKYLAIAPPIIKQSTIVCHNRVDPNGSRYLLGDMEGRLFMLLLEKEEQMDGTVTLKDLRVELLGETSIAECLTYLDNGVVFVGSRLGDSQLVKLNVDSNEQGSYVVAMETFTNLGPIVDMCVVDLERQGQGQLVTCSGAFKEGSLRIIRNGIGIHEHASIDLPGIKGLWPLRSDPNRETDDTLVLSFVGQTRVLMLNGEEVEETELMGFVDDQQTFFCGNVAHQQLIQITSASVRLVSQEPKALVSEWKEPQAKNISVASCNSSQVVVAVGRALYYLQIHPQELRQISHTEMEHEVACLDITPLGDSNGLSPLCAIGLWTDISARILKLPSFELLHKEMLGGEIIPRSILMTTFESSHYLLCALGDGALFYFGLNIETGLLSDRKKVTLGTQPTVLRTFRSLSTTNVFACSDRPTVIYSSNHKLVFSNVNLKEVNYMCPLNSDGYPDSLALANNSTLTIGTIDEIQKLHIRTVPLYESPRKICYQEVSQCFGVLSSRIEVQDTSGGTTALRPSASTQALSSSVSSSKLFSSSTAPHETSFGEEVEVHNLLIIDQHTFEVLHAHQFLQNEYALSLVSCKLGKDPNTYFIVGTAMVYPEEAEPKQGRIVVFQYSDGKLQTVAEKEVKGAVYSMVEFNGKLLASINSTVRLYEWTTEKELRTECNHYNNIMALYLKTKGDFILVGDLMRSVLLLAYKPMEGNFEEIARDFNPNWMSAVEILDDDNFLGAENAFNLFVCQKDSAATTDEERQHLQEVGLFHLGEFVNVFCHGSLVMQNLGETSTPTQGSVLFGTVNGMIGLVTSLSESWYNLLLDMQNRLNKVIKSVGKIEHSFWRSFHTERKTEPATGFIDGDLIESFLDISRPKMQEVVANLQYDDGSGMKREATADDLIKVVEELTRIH

SMILES | EC50
N#Cc1ccc(CCCN2CCN(S(=O)(=O)c3ccc(S(=O)(=O)Nc4ccc(Cl)c5c(Cl)c[nH]c45)cc3)CC2)cc1 [Compound 50, 4-((4-(3-(4-cyanophenyl)propyl)piperazin-1-yl)sulfonyl)-N-(3,4-dichloro-1H-indol-7-yl)benzenesulfonamide] | < 1000 nM

Same assay, conditions: AlphaLISA, His-tagged DCAF15 complex and biotin-carrying RBM39; read-out: Ternary-RBM39 (RRM2) EC50

EC50 | SMILES
< 1000 nM | CN1CC(NS(=O)(=O)c2ccc(S(=O)(=O)Nc3ccc(Cl)c4c(Cl)c[nH]c34)cc2)CCC1=O (stereo not shown) [Compound 32, N^1-(3,4-dichloro-1H-indol-7-yl)-N^4-(1-methyl-6-oxopiperidin-3-yl)benzene-1,4-disulfonamide]
< 1000 nM | O=S(=O)(Nc1ccc(Cl)c2c(Cl)c[nH]c12)c1ccc(S(=O)(=O)N2CCCNCC2)cc1 [Compound 52, 4-((1,4-diazepan-1-yl)sulfonyl)-N-(3,4-dichloro-1H-indol-7-yl)benzene sulfonamide]
< 1000 nM | Cc1ccc(NS(=O)(=O)c2ccc(S(=O)(=O)N(C)C3CCNCC3)cc2)c2[nH]cc(C#N)c12 [Compound 78, N^1-(3-cyano-4-methyl-1H-indol-7-yl)-N^4-methyl-N^4-(piperidin-4-yl) benzene-1,4-disulfonamide]
< 20000 nM | O=S(=O)(NCCCOCc1ccccc1)c1ccc(S(=O)(=O)Nc2ccc(Cl)c3c(Cl)c[nH]c23)cc1 [Compound 5, N^1-(3-(benzyloxy)propyl)-N^4-(3,4-dichloro-1H-indol-7-yl)benzene-1,4-disulfonamide]
< 5000 nM | CCOC(=O)N1CCN(S(=O)(=O)c2ccc(S(=O)(=O)Nc3ccc(Cl)c4c(Cl)c[nH]c34)cc2)CC1 [Compound 49, ethyl 4-((4-(N-(3,4-dichloro-1H-indol-7-yl)sulfamoyl)phenyl)sulfonyl)piperazine-1-carboxylate]
< 5000 nM | C#CCOCCOCCOCC(=O)N(CCC)c1ccc(S(=O)(=O)Nc2ccc(Cl)c3c(Cl)c[nH]c23)cc1 [compound 132]
< 1000 nM | Cc1ccc(NS(=O)(=O)c2ccc(S(=O)(=O)N(C)C3CNC3)cc2)c2[nH]cc(C#N)c12 [Compound 79, N^1-(azetidin-3-yl)-N^4-(3-cyano-4-methyl-1H-indol-7-yl)-N^1-methylbenzene-1,4-disulfonamide]
< 5000 nM | O=C(NS(=O)(=O)c1ccc(Br)s1)c1ccc(Cl)cc1Cl [Tasisulam, tasisulam, reference compound]
< 1000 nM | Cc1ccc(NS(=O)(=O)c2cc(F)cc(C#N)c2)c2[nH]cc(C#N)c12 [Compound 98, 3-cyano-N-(3-cyano-4-methyl-1H-indol-7-yl)-5-fluorobenzenesulfonamide]
< 1000 nM | Cc1ccc(NS(=O)(=O)c2ccc(S(=O)(=O)N3CC4(CNC4)C3)cc2)c2[nH]cc(C#N)c12 [Compound 93, 4-((2,6-diazaspiro[3.3]heptan-2-yl)sulfonyl)-N-(3-cyano-4-methyl-1H-indol-7-yl)benzenesulfonamide]
< 1000 nM | COCCN1CCN(S(=O)(=O)c2ccc(S(=O)(=O)Nc3ccc(C)c4c(C#N)c[nH]c34)cc2)CC1 [Compound 85, N-(3-cyano-4-methyl-1H-indol-7-yl)-4-((4-(2-methoxyethyl)piperazin-1-yl)sulfonyl)benzenesulfonamide]
< 5000 nM | O=S(=O)(Nc1ccc(Cl)c2c(Cl)c[nH]c12)c1ccc(Br)cc1 [Compound 75, 4-bromo-N-(3,4-dichloro-1H-indol-7-yl)benzenesulfonamide]
< 1000 nM | CCC1CN(S(=O)(=O)c2ccc(S(=O)(=O)Nc3ccc(C)c4c(C#N)c[nH]c34)cc2)CCN1 (stereo not shown) [Compound 84, N-(3-cyano-4-methyl-1H-indol-7-yl)-4-((3-ethylpiperazin-1-yl)sulfonyl) benzenesulfonamide]
< 1000 nM | O=S(=O)(Nc1ccc(Cl)c2c(Cl)c[nH]c12)c1ccc(S(=O)(=O)NC2CCNCC2)cc1 [Compound 29, N^1-(3,4-dichloro-1H-indol-7-yl)-N^4-(piperidin-4-yl)benzene-1,4-disulfonamide]
< 1000 nM | CCCN(c1ccc(S(=O)(=O)Nc2ccc(Cl)c3c(Cl)c[nH]c23)cc1)S(=O)(=O)C1CCN(C)CC1 [Compound 62, N-(4-(N-(3,4-dichloro-1H-indol-7-yl)sulfamoyl)phenyl)-1-methyl-N-propylpiperidine-4-sulfonamide]
< 1000 nM | COCCc1cn(-c2cccc(S(=O)(=O)Nc3ccc(C)c4c(C#N)c[nH]c34)c2)nn1 [Compound 97, N-(3-cyano-4-methyl-1H-indol-7-yl)-3-(4-(2-methoxyethyl)-1H-1,2,3-triazol-1-yl)benzenesulfonamide]
< 1000 nM | Cc1ccc(NS(=O)(=O)c2ccc(S(=O)(=O)N3CCOCC3)cc2)c2[nH]cc(C#N)c12 [Compound 90, N-(3-cyano-4-methyl-1H-indol-7-yl)-4-(morpholinosulfonyl)benzene sulfonamide]

EC50 | SMILES
< 1000 nM | CC1CNCCN1S(=O)(=O)c1ccc(S(=O)(=O)Nc2ccc(Cl)c3c(Cl)c[nH]c23)cc1 (stereo not shown) [Compound 46, N-(3,4-dichloro-1H-indol-7-yl)-4-((2-methylpiperazin-1-yl)sulfonyl)benzene sulfonamide]
< 5000 nM | O=S(=O)(Nc1cccc2cc[nH]c12)c1ccc(S(=O)(=O)N2CCNCC2)cc1 [compound 145]
< 1000 nM | O=S(=O)(Nc1ccc(Cl)c2c(Cl)c[nH]c12)c1ccc(S(=O)(=O)N2CCCCC2)cc1 [Compound 37, N-(3,4-dichloro-1H-indol-7-yl)-4-(piperidin-1-ylsulfonyl)benzenesulfonamide]
< 1000 nM | O=S(=O)(Nc1ccc(Cl)c2c(Cl)c[nH]c12)c1cccc(S(=O)(=O)N2CCNCC2)c1 [Compound 41, N-(3,4-dichloro-1H-indol-7-yl)-3-(piperazin-1-ylsulfonyl)benzenesulfonamide]
< 1000 nM | O=S1(=O)CCC(OCCNS(=O)(=O)c2ccc(S(=O)(=O)Nc3ccc(Cl)c4c(Cl)c[nH]c34)cc2)CC1 [Compound 4, N^1-(3,4-dichloro-1H-indol-7-yl)-N4_ (2-((1,1-dioxidotetrahydro-2H-thiopyran-4-yl)oxy)ethyl) benzene-1,4-disulfonamide]
< 5000 nM | O=S(=O)(Nc1ccc(Cl)c2c(Cl)c[nH]c12)c1ccc(NS(=O)(=O)C2CCNCC2)cc1 [Compound 65, N-(4-(N-(3,4-dichloro-1H-indol-7-yl)sulfamoyl)phenyl)piperidine-4-sulfonamide]
< 1000 nM | Cc1ccc(NS(=O)(=O)c2ccc(S(=O)(=O)N3CCNC(=O)C3)cc2)c2[nH]cc(C#N)c12 [Compound 89, N-(3-cyano-4-methyl-1H-indol-7-yl)-4-((3-oxopiperazin-1-yl)sulfonyl)benzenesulfonamide]
< 20000 nM | CCN(CC)C(=O)c1ccc(CNS(=O)(=O)c2ccc(S(=O)(=O)Nc3ccc(Cl)c4c(Cl)c[nH]c34)cc2)cc1 [Compound 12, 4-(((4-(N-(3,4-dichloro-1H-indol-7-yl)sulfamoyl)phenyl)sulfonamido)methyl)-N,N-diethylbenzamid]
< 20000 nM | O=S(=O)(Nc1ccc(Cl)c2c(Cl)c[nH]c12)c1ccc(S(=O)(=O)NC2CCc3ccccc32)cc1 (stereo not shown) [Compound 34, N^1-(3,4-dichloro-1H-indol-7-yl)-N^4-(2,3-dihydro-1H-inden-1-yl)benzene-1,4-disulfonamide]
< 5000 nM | O=S(=O)(NCCc1ccccn1)c1ccc(S(=O)(=O)Nc2ccc(Cl)c3c(Cl)c[nH]c23)cc1 [Compound 26, N^1-(3,4-dichloro-1H-indol-7-yl)-N^4-(2-(pyridin-2-yl)ethyl)benzene-1,4-disulfonamide]
< 1000 nM | CCS(=O)(=O)CCNS(=O)(=O)c1ccc(S(=O)(=O)Nc2ccc(Cl)c3c(Cl)c[nH]c23)cc1 [Compound 3, N^1-(3,4-dichloro-1H-indol-7-yl)-N^4-(2-(ethylsulfonyl)ethyl) benzene-1,4-disulfonamide]
< 1000 nM | Cc1ccc(NS(=O)(=O)c2ccc(S(=O)(=O)N3CCNCC3)cc2)c2[nH]cc(C#N)c12 [Compound 83, N-(3-cyano-4-methyl-1H-indol-7-yl)-4-(piperazin-1-ylsulfonyl)benzene sulfonamide]
< 1000 nM | COc1cc(NS(=O)(=O)c2cccc(C#N)c2)c2[nH]cc(Cl)c2c1 [Compound 103, N-(3-chloro-5-methoxy-1H-indol-7-yl)-3-cyanobenzenesulfonamide]
< 1000 nM | CN1CCN(S(=O)(=O)c2ccc(S(=O)(=O)Nc3ccc(Cl)c4c(Cl)c[nH]c34)cc2)CC1 [Compound 48, N-(3,4-dichloro-1H-indol-7-yl)-4-((4-methylpiperazin-1-yl)sulfonyl)benzenesulfonamide]
< 5000 nM | O=S(=O)(NCCOCC1CC1)c1ccc(S(=O)(=O)Nc2ccc(Cl)c3c(Cl)c[nH]c23)cc1 [Compound 6, N^1-(2-(cyclopropylmethoxy)ethyl)-N^4-(3,4-dichloro-1H-indol-7-yl)benzene-1,4-disulfonamide]
< 1000 nM | Cc1ccc(NS(=O)(=O)c2ccc(S(=O)(=O)N3CCCC(N)C3)cc2)c2[nH]cc(C#N)c12 (stereo not shown) [Compound 82, 4-((3-aminopiperidin-1-yl)sulfonyl)-N-(3-cyano-4-methyl-1H-indol-7-yl) benzenesulfonamide]

Each molecule was assayed against DCAF15 (Homo sapiens, UniProt Q66K64) (assay: Binary interaction between compounds and DCAF15, HTRF competition assay). Conditions: HTRF competition with Alexa Fluor 647 tracer, His-tagged DCAF15 complex; read-out: DCAF15 IC50.
Format: binding
Method: DCAF15 interactions with test compounds were monitored using HTRF competition assays (Cisbio, Bedford, MA). […] These two solutions were mixed and incubated for 15 min at room temperature. 9.8 ul of the tracer solution and 10 ul of the DCAF15/mAb Anti-6His-Eu cryptate Gold mixture were added sequentially to each well in the assay plate. Reaction mixtures with no DCAF15 added were included as […] controls. […] Binding was estimated based on ratiometric analysis and titration curves were generated in GraphPad Prism (7.00, GraphPad, La Jolla, CA).

DCAF15, sequence (Q66K64 whole entry): as the sequence (Q66K64 whole entry) above
DCAF15, sequence (Q16531 whole entry partner): as the sequence (Q16531 whole entry partner) above

IC50 | SMILES
< 5000 nM | CN1CC(NS(=O)(=O)c2ccc(S(=O)(=O)Nc3ccc(Cl)c4c(Cl)c[nH]c34)cc2)CCC1=O (stereo not shown) [Compound 32, N^1-(3,4-dichloro-1H-indol-7-yl)-N^4-(1-methyl-6-oxopiperidin-3-yl)benzene-1,4-disulfonamide]
< 5000 nM | O=S(=O)(Nc1ccc(Cl)c2c(Cl)c[nH]c12)c1ccc(S(=O)(=O)N2CCCNCC2)cc1 [Compound 52, 4-((1,4-diazepan-1-yl)sulfonyl)-N-(3,4-dichloro-1H-indol-7-yl)benzene sulfonamide]
< 5000 nM | Cc1ccc(NS(=O)(=O)c2ccc(S(=O)(=O)N(C)C3CCNCC3)cc2)c2[nH]cc(C#N)c12 [Compound 78, N^1-(3-cyano-4-methyl-1H-indol-7-yl)-N^4-methyl-N^4-(piperidin-4-yl) benzene-1,4-disulfonamide]
< 100000 nM | O=S(=O)(NCCCOCc1ccccc1)c1ccc(S(=O)(=O)Nc2ccc(Cl)c3c(Cl)c[nH]c23)cc1 [Compound 5, N^1-(3-(benzyloxy)propyl)-N^4-(3,4-dichloro-1H-indol-7-yl)benzene-1,4-disulfonamide]
< 5000 nM | CCCC1CN(S(=O)(=O)c2ccc(S(=O)(=O)Nc3ccc(Cl)c4c(Cl)c[nH]c34)cc2)CCN1 (stereo not shown) [compound 110]
< 100000 nM | O=S(=O)(Nc1ccc(C2CC2)c2c(Cl)c[nH]c12)c1ccc(S(=O)(=O)N2CCNCC2)cc1 [compound 147]
